Our source for the melting point values is a melting point compilation (Tetko et al.).

Each structure is given as a SMILES string.

One may read the melting point as the temperature, or range, at which the solid turns liquid.

`COC(=O)c1ccc2c(c1)CCCN2` had a melting point of 71 to 73 °C. Take `CC(O)C(=O)Nc1ccccc1` (configuration not stated): the melting point lay within 52 to 54 °C. The result for `CN1C(=O)C(=O)c2ccc(F)cc21` reads 137 to 139 °C; that for `Cc1ccc(S(=O)(=O)OCc2nc3ccccc3s2)cc1`, 108 to 110 °C; that for `CC(C)NC(=O)CNS(=O)(=O)CCC(=O)O`, 125 to 127 °C. The compound `CN(C)C1CCN(c2ccc(N)cc2)CC1` displayed a melting point of 119 to 121 °C. With `COc1ccccc1C(N)c1nccn1C` (configuration not stated) the figure was 78 to 80 °C.

Compound `O=c1c2cnn(-c3ccccc3)c2nnn1CCl` yielded a melting point of 179 to 181 °C. `Cc1noc(C)c1S(N)(=O)=O` displayed a melting point of 151 to 152 °C. On to `COc1ccc(CCCC(=O)O)c(OC)c1`, for which the melting point was 46 to 48 °C. `O=C(O)CCCC(=O)Nc1cccnc1N1CCCC1`: the melting point was in the range of 142 to 144 °C.

For the compound `NC(=O)c1ccc(CCl)c([N+](=O)[O-])c1`, the melting point lay in the range of 115 to 117 °C. `Cc1cc(C)c(C#N)c(N2CCCC2)n1` gave a melting point of 54 to 56 °C. `CC(C(=O)O)S(=O)(=O)c1ccc(F)cc1` (configuration not stated) came in with a melting point of 117 to 119 °C. Consider `CNc1ccc(Br)cc1N`, for which the melting point was in the range of 49 to 51 °C. With `Cc1nc2cc(O)nn2c(C)c1CCC(=O)O` the figure was 302 to 304 °C.

Consider `Cc1ccc(-c2noc3nc(C)cc(C(=O)O)c23)cc1`, for which the melting point fell in the range of 261 to 263 °C. As to `Cc1ccc2c(c1)C(=O)C(=O)N2`, the melting point was 180 to 184 °C.

`Cc1noc(-c2ccc(C)c([N+](=O)[O-])c2)n1`: the melting point fell in the range of 100 to 102 °C. Take `Cc1ccc(-c2ncc(C(=O)O)s2)c(C)c1`: the melting point was in the range of 171 to 173 °C. With `COc1ccc(O)c(C(N)=O)c1`, the melting point fell in the range of 151 to 153 °C.

For `CC(C)(C)NC(N)=S`, the melting point was 171 to 175 °C. Consider `CN(C)S(=O)(=O)c1cc(C(=O)O)ccc1Cl`, for which the melting point was 239 to 241 °C. With `O=C(O)C(=Cc1ccc(F)cc1)c1cccs1`, the melting point was 185 to 187 °C. For `ClCc1noc(-c2ccoc2)n1`, the melting point lay within 77 to 79 °C.

Consider `O=C(NCC(F)(F)F)c1cccc(S(=O)(=O)Cl)c1`, for which the melting point was 83 to 85 °C.

In turn, `Cc1ccc(-c2cc(N)on2)cc1` returned a melting point of 148 to 150 °C. Consider `COc1cccc(C2C(C(=O)O)CC(=O)N2C2CC2)c1` (configuration not stated), for which the melting point lay in the range of 179 to 181 °C. The compound `NNC(=O)Cc1cccs1` returned a melting point of 64 to 66 °C. On to `Cc1ccc(CN)cn1`, for which the melting point lay in the range of 59 to 61 °C. For the compound `O=C(O)c1cc(-c2ccc(OC(F)F)cc2)nc2ccccc12`, the melting point fell in the range of 224 to 226 °C. `COc1ccc(S(=O)(=O)CCC(=O)O)cc1OC` registered a melting point of 139 to 141 °C. With `CC(C)(C)S(=O)(=O)CC(=O)O` the figure was 89 to 91 °C. On to `c1cc2c(cn1)NCCCN2`, for which the melting point fell in the range of 121 to 123 °C.

In turn, `Cc1nc(C(=O)O)c2n1CCCC2` returned a melting point of 225 to 227 °C.

Compound `NNc1c([N+](=O)[O-])cc(C(F)(F)F)cc1[N+](=O)[O-]` displayed a melting point of 129 to 131 °C. Compound `O=C1OCCc2cnc3ncnn3c21` registered a melting point of 271 to 273 °C. The result for `O=C(O)c1ccc2[nH]c(=O)[nH]c2c1` reads 373 to 375 °C. With `ClCc1cc(Cl)cc2c1OC(c1ccccc1)OC2` (configuration not stated) the figure was 111 to 113 °C; with `Nc1nc(CC(=O)c2ccccc2)cs1`, 157 to 159 °C. `CC1(C(=O)O)CCCS1` (configuration not stated): the melting point fell in the range of 38 to 40 °C. In the case of `O=C(NCc1cccc(Br)c1)NC1(C(=O)O)CCCC1`, the melting point fell in the range of 170 to 172 °C.

With `O=[N+]([O-])c1ccc2[nH]c(-c3cscn3)nc2c1`, the melting point is 257 to 259 °C.

In turn, `COC(=O)NC(=O)CCl` yielded a melting point of 147 to 151 °C. `COC(=O)Cc1cc(=O)n(C(C)(C)C)[nH]1` had a melting point of 110 to 112 °C. For the compound `O=C(O)CCS(=O)(=O)c1ccc2c(c1)OCCCO2`, the melting point lay in the range of 109 to 111 °C. On to `NC(=O)C1CC2CCCCC2N1` (configuration not stated), for which the melting point fell in the range of 123 to 125 °C. As for `CC(C)c1ccc(N2Cc3ccc(N)cc3C2)cc1`, the melting point was 164 to 166 °C. As for `O=C(O)/C=C/c1cccc(-c2ccccc2)c1`, the melting point was in the range of 195 to 197 °C. The result for `CCC(=CC(=O)O)c1ccc(C)cc1` reads 116 to 118 °C; that for `O=C(O)C1CCN(c2ccc3nnnn3n2)CC1`, 199 to 201 °C. The result for `Cc1ccc(C(=O)N2CC(C)CC(C)C2)cc1N` (configuration not stated) reads 154 to 156 °C. In turn, `CCNS(=O)(=O)c1ccc(I)cc1` gave a melting point of 112 to 114 °C. The compound `Cc1cc(C(=O)O)n2nc(C)cc2n1` came in with a melting point of 189 to 191 °C. As for `Cc1csc2ccc(C#N)cc12`, the melting point fell in the range of 97 to 99 °C.

`Nc1cc(-c2ccc(F)cc2F)on1` returned a melting point of 122 to 124 °C. The result for `N#Cc1ccccc1Oc1ccc(N)cn1` reads 92 to 94 °C. The compound `Nc1nncc(-c2cc(F)ccc2F)n1` registered a melting point of 239 to 241 °C. With `O=C(O)c1sc2cccc(F)c2c1COc1ccccc1` the figure was 206 to 208 °C; with `C=CCn1cc(C(=O)O)c2ccccc21`, 159 to 161 °C. `O=C1NCc2ccc(F)cc21` had a melting point of 203 to 205 °C. As for `O=C(CCl)NCC(c1ccc(Cl)cc1Cl)c1c[nH]c2ccccc12` (configuration not stated), the melting point was in the range of 73 to 75 °C. Compound `O=Cc1ccc(OCCn2cc(C(=O)O)nn2)c(Cl)c1` yielded a melting point of 189 to 191 °C. As for `CCc1nonc1N`, the melting point is 69 to 71 °C.

`Nc1nc(Br)ccc1O`: the melting point is 153 to 155 °C.

Regarding `NOC1CCCCO1` (configuration not stated), the melting point lay in the range of 34 to 37 °C.

Compound `Cc1cc(C)n2nc(O)cc2n1` gave a melting point of 241 to 243 °C. `CCCCc1nc2ccccc2[nH]1` displayed a melting point of 149 to 151 °C.

In turn, `CC(C)C(C#N)NC(=O)c1ccccc1` (configuration not stated) had a melting point of 106 to 108 °C. For the compound `NNS(=O)(=O)c1ccc(Br)cc1`, the melting point was in the range of 225 to 227 °C. `CCNC(=O)N1CCc2c(cccc2-n2nnc(C(=O)O)c2C)C1` yielded a melting point of 200 to 202 °C. Consider `NC(=O)c1ccc(S(N)(=O)=O)s1`, for which the melting point lay within 214 to 216 °C. The compound `O=C(O)c1nn(-c2ccccc2)c2c1CCC2` registered a melting point of 179 to 181 °C.

In the case of `COC(=O)c1ccc(N)c(OC(F)F)c1`, the melting point was 64 to 66 °C. In the case of `O=C(O)c1ccn(-c2ccccc2)n1`, the melting point is 138 to 140 °C. The compound `Nc1cc(Cl)ccc1C(=O)N1CCCCC1CCO` (configuration not stated) showed a melting point of 115 to 117 °C. `COc1ccc(-n2ccc(C(=O)O)n2)cc1` displayed a melting point of 182 to 184 °C. With `Cc1cc([N+](=O)[O-])cnc1N1CCCCC1C` (configuration not stated), the melting point was 48 to 50 °C. As for `COC(=O)c1ccc(C(=O)O)o1`, the melting point lay within 194 to 196 °C. In turn, `Cc1ccc(-n2nc(C(=O)O)c3c2CCC3)c(F)c1` returned a melting point of 219 to 221 °C. `CC(C#N)CSc1ccccc1N` (configuration not stated) came in with a melting point of 65 to 67 °C.

`NCc1ccc(OCc2ccccc2)cc1` came in with a melting point of 51 to 53 °C.

On to `CCOC(=O)c1sc2nc(Cl)cc(C)c2c1C`, for which the melting point fell in the range of 125 to 127 °C. As to `O=C(O)c1cc(Br)cnc1S`, the melting point was in the range of 239 to 241 °C. As to `NNC(=O)c1ccc(-n2cnnn2)cc1`, the melting point was in the range of 228 to 230 °C.

Turning to `O=C(NO)c1ccccc1C(F)(F)F`, the melting point lay within 157 to 159 °C. On to `Cc1cc(S(=O)(=O)Cl)cc(C(=O)O)c1C`, for which the melting point was in the range of 179 to 181 °C.

In turn, `COc1cc(N)c(C(N)=O)cc1OC` yielded a melting point of 142 to 144 °C. `O=C(O)c1ccc2nnc(C(F)F)n2c1` came in with a melting point of 278 to 280 °C. The result for `O=C1CN(C(=O)CCl)c2ccccc2N1` reads 114 to 119 °C; that for `CC(Oc1ccccc1Br)C(=O)O` (configuration not stated), 138 to 140 °C; that for `CCCC(=O)Nc1cccc(N)c1C`, 106 to 108 °C. With `O=C(O)c1ccnc(NC2CCCC2)c1`, the melting point lay in the range of 296 to 298 °C. As for `Cc1nn2c(S)nnc2nc1O`, the melting point was in the range of 305 to 307 °C. The result for `O=C(O)c1cc(-c2cccs2)nc2ccccc12` reads 199 to 201 °C. Compound `CCC(C)NC(=O)c1ccc(N)c(C)c1` (configuration not stated) yielded a melting point of 123 to 125 °C.

As to `NNc1nc(Cl)c(Cl)cc1Cl`, the melting point fell in the range of 161 to 163 °C.

`CC(C)(C)C(=O)N1CCC(C(=O)O)CC1` gave a melting point of 115 to 127 °C. The compound `CC1(C)C(=O)NC(=O)N1CC(N)=O` came in with a melting point of 154 to 156 °C. As for `Nc1nc(N)nc(CCl)n1`, the melting point lay in the range of 221 to 223 °C. With `O=C(O)Cn1c(=O)oc2ccccc21` the figure was 178 to 180 °C; with `O=C(O)c1csc(Cc2cccc(F)c2)n1`, 149 to 151 °C.

As for `Oc1cccc(Oc2cccnc2)c1`, the melting point was 109 to 111 °C. Compound `O=C(Nc1nncs1)C1CCCNC1` (configuration not stated) returned a melting point of 186 to 188 °C. For `Fc1ccc(COc2cccc(N3CCNCC3)c2)cc1`, the melting point is 84 to 86 °C. Take `OCc1c[nH]c2ccc(Br)cc12`: the melting point fell in the range of 112 to 114 °C. In turn, `OCc1cc2ccccc2nc1Cl` came in with a melting point of 163 to 165 °C. Compound `CC(C)(C)CC(=O)NCC(=O)O` came in with a melting point of 106 to 108 °C. With `O=C(O)c1cnc(C2CC2)s1`, the melting point was in the range of 187 to 189 °C. In the case of `NC(CCCN1CCCCC1)=NO`, the melting point lay in the range of 89 to 91 °C. The result for `O=C(O)c1ccc(S(=O)(=O)Cl)cc1F` reads 142 to 144 °C; that for `Cc1ccc(-c2noc(Cl)n2)cc1`, 40 to 42 °C. Compound `O=C(CCl)NCC(=O)c1cccs1` gave a melting point of 133 to 135 °C. The result for `CCN(CC)C(=O)Nc1ccc(C(C)=O)cc1` reads 113 to 115 °C; that for `Cc1nn(-c2ncc(C(F)(F)F)cc2Cl)c(C(F)(F)F)c1C(=O)O`, 167 to 169 °C; that for `CS(=O)(=O)Cc1nc(CCl)cs1`, 80 to 82 °C. `CCc1ccc(-c2nn(-c3ccccc3C)cc2C(=O)O)cc1` gave a melting point of 177 to 179 °C. Consider `CC1CC(C)CN(S(=O)(=O)Cl)C1` (configuration not stated), for which the melting point is 41 to 43 °C. The result for `O=Cc1cn(-c2ccccc2)nc1-c1ccncc1` reads 153 to 155 °C; that for `O=C(O)c1cccnc1Oc1ccc(Cl)cc1Cl`, 191 to 193 °C; that for `Cc1nc(-c2ccc(O)cc2)no1`, 186 to 188 °C.

As for `CC(C)(C)OC(=O)c1ccc(C#N)cc1`, the melting point fell in the range of 74 to 76 °C.
